According to patent publication US20220185822A1, “SELECTIVE LIGANDS OF HUMAN CONSTITUTIVE ANDROSTANE RECEPTOR” (USTAV ORGANICKE CHEMIE A BIOCHEMIE AV CR, V.V.I., priority 2019, published 2022):
Entries after “also recorded” stand apart in the source; their conditions may differ.

Key:
in vivo = conditions: C57BL/6, mouse, 10 mg/kg
[1] = test system: CYP2B6 mRNA (CAR target gene); assay: RT-qPCR of CYP2B6 mRNA in HepaRG cells; assay type: cell-based, human; conditions: 24 h of treatment (FIG. 3)
Source text: Delta-delta method and GAPDH/Gapdh or B2M/B2m housekeeping genes were used for relative quantification. Data are expressed as fold up-/down-regulation compare to vehicle-treated samples/mice.

[2] = target: T1, human CAR ligand-binding domain (LBD) (Homo sapiens, UniProt Q14994); assay: TR-FRET CAR Coactivator Binding Assay (LanthaScreen); assay type: biochemical
T1 construct: purchased ThermoFisher Scientific PV4836
Source text: The assay uses two fluorophores: a terbium-labeled anti-GST antibody interacting with glutathione-S-transferase tagged human CAR ligand-binding domain (LBD) and a fluorescein-labeled PGC1α coactivator peptide. […] Values above 1 represent the agonistic activity on CAR with subsequent CAR-PGC1α interaction.

[3] = Stability in human plasma; assay type: in vitro ADME; conditions: over 120 minutes
CAR variant 3 = target: T2, CAR variant 3 (Homo sapiens, UniProt Q14994, DEL233-236); assay: Luciferase reporter gene assay with CAR variant 3 in HepG2 cells; assay type: cell-based; conditions: tested at 1 μM; HepG2, 24 h
T2 construct: expressed in transfected cells; host or cells: HepG2
T2 sequence (Q14994 with tags, fused parts or gaps isoform Q14994-8 DEL233-236): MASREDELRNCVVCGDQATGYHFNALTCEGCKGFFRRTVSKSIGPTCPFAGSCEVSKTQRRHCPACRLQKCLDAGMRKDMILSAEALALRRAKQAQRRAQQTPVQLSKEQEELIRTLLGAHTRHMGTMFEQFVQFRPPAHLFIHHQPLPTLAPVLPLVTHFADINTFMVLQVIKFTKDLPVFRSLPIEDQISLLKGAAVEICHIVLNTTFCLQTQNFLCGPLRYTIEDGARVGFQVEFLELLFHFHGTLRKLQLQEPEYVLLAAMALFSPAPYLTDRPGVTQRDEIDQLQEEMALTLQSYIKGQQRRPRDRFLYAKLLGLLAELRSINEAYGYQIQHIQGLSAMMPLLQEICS
T2 sequence (P19793 1-462 partner): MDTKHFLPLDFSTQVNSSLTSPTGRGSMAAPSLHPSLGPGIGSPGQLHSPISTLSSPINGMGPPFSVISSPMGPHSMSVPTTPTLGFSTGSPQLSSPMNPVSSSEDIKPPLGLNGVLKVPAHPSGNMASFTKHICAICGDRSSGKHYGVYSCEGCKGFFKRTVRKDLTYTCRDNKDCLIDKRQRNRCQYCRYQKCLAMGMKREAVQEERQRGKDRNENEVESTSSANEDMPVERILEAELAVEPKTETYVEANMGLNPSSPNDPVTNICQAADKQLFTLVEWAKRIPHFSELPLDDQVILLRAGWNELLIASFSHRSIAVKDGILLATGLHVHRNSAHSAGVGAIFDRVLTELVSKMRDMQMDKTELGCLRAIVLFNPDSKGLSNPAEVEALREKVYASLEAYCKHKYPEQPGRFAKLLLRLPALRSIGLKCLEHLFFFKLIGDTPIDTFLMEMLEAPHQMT

COS-1 cells = assay: Cytotoxicity, cell viability (MTS) in COS-1; assay type: cell-based, African green monkey; conditions: Chlorocebus sabaeus, 48-h treatment, no significant effect at 30 μM/L
Method: Cell viability in HepG2 and COS-1 cells after a 48 h treatment with test compounds at a concentration from 1 up to 30 μM was determined using the modified formazan-based […] assay. […] Briefly, the cells were treated with the test compounds or vehicle alone (DMSO) for 48 h. At the end of the treatment, 20 μl of MTS reagent was added directly to each culture wells and further cultivated for 1.5 h. Finally, the absorbance of converted formazan was recorded at 490 nm by plate reader (BioTec Synergy 2. Winooski. Vt. USA). Vehicle (DMSO) and TritonX100 (0.9%; v/v) controls of cell viability were set to be 100% and 0%, respectively.

[4] = Human plasma protein binding (micro-equilibrium dialysis); assay type: in vitro ADME; conditions: at 1 μM/L
estradion β receptor = target: T3, estradion β receptor (Homo sapiens, UniProt Q92731); assay: Luciferase reporter assay with GAL4 construct with LBD, estradion β receptor; assay type: cell-based; conditions: 10 μM/L
T3 construct: luciferase reporter assays with a GAL4 constructs with LBD of tested nuclear receptors; expressed in transfected cells

live X receptor α = target: T4, live X receptor α (Homo sapiens, UniProt Q13133); assay: Luciferase reporter assay with GAL4 construct with LBD, live X receptor α; assay type: cell-based; conditions: 10 μM/L
T4 construct: luciferase reporter assays with a GAL4 constructs with LBD of tested nuclear receptors; expressed in transfected cells

live X receptor β = target: T5, live X receptor β (Homo sapiens, UniProt P55055); assay: Luciferase reporter assay with GAL4 construct with LBD, live X receptor β; assay type: cell-based; conditions: 10 μM/L
T5 construct: luciferase reporter assays with a GAL4 constructs with LBD of tested nuclear receptors; expressed in transfected cells

human CYP2D6 = target: T6, human CYP2D6 (Homo sapiens, UniProt P10635); assay: Commercial CYP450-Glo inhibition assay, CYP2D6; assay type: in vitro ADME
T6 construct: purchased Promega V8891

[5] = test system: thyroid hormone receptors; assay: Luciferase reporter assay with GAL4 construct with LBD, thyroid hormone receptors; assay type: cell-based, human; conditions: 10 μM/L
[6] = Repeated Dose 7-day Oral Toxicity Study in Rats; assay type: in vivo; conditions: 1 and 10 mg/kg
Method: The studies were conducted on female rats.

human CYP1A2 = target: T7, human CYP1A2 (Homo sapiens, UniProt P05177); assay: Commercial CYP450-Glo inhibition assay, CYP1A2; assay type: in vitro ADME
T7 construct: purchased Promega V8772

human CAR LBD = target: T8, human CAR LBD (Homo sapiens, UniProt Q14994); assay: CAR LBD assembly assay (two hybrid luciferase reporter in HepG2 cells); assay type: cell-based
T8 construct: C (151-349 aa) and N (103-150 aa) terminal parts of human CAR LBD; N (103-150 aa) terminal parts of human CAR LBD; expressed in transfected cells; host or cells: HepG2
T8 sequence (Q14994 151-348 isoform Q14994-2 limits assumed): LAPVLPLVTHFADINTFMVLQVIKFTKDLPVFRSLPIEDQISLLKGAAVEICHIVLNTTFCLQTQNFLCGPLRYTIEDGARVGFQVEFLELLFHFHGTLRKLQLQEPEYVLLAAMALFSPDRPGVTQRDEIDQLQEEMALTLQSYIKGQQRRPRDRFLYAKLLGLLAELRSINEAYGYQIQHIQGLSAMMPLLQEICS
T8 sequence (Q14994 103-150 isoform Q14994-2 limits assumed): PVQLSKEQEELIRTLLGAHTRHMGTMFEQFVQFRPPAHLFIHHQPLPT
Method: A ligand promotes connection of the two parts of CAR LBD resulting in luciferase transactivation. Luminescence activity in the cell lysate was measured using a commercially available luciferase detection system (Catalog Number E1960, Dual Luciferase Reporter Assay Kit, Promega, Madison, Wis., USA). The data are presented as means and S.D. and expressed as the fold-change of firefly luciferase activity normalized to Renilla luciferase activity in each sample and relative to the vehicle (DMSO 0.1%)-treated controls, which were set at 1.

[7] = test system: differentiated HepaRG cells; assay: Viability/cytotoxicity in differentiated HepaRG cells; assay type: cell-based, human; conditions: 48 h treatment

T5 sequence (P55055 222-460 limits assumed): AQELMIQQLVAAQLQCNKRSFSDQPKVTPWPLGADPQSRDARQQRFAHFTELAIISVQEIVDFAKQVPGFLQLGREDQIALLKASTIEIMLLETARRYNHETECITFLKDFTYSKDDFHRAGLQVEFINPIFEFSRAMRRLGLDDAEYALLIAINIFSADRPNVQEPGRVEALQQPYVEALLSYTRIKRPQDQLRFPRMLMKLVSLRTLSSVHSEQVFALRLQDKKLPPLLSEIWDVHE
T6 sequence (P10635 whole entry): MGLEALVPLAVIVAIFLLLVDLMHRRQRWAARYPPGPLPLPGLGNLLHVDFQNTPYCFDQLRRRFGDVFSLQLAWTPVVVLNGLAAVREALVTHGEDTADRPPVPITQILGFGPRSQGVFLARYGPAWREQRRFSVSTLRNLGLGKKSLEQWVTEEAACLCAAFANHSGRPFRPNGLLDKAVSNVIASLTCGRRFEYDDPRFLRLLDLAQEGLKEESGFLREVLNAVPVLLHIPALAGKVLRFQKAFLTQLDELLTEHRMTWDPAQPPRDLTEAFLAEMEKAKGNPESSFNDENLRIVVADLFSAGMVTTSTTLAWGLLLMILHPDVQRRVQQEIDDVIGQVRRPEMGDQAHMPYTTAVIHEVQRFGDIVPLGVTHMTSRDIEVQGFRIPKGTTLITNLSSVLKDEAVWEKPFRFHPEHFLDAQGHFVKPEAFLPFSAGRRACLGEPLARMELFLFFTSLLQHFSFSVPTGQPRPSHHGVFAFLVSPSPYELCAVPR
T7 sequence (P05177 whole entry): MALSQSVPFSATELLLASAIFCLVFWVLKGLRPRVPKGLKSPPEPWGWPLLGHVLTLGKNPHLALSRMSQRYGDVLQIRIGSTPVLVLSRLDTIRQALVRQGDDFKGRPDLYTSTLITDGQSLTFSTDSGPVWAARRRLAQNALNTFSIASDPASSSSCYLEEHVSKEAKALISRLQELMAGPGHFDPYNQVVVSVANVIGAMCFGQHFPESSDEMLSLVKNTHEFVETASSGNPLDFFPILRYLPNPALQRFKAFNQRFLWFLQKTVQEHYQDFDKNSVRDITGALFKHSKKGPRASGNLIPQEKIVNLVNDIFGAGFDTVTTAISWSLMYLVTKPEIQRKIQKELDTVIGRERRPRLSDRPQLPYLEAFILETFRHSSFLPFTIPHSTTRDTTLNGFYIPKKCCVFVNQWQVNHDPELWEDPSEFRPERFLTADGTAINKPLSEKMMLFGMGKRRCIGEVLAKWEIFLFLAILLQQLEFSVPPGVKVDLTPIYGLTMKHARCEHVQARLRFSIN
T3 sequence (Q92731 264-498 limits assumed): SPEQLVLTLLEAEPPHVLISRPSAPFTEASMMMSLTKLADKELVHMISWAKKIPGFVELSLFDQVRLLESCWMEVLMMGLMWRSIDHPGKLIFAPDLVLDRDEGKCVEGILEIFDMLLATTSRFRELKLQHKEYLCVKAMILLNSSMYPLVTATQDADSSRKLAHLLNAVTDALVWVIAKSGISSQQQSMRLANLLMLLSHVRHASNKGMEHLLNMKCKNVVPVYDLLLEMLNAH
T4 sequence (Q13133 209-447 limits assumed): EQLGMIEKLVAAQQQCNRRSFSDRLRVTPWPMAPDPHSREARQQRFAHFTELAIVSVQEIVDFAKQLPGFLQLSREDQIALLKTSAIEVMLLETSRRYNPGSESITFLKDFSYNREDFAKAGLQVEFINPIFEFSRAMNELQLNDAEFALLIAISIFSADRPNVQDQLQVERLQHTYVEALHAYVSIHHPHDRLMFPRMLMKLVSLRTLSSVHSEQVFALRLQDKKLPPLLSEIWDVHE
T1 sequence (Q14994 103-348 isoform Q14994-2 limits assumed, other chains not shown): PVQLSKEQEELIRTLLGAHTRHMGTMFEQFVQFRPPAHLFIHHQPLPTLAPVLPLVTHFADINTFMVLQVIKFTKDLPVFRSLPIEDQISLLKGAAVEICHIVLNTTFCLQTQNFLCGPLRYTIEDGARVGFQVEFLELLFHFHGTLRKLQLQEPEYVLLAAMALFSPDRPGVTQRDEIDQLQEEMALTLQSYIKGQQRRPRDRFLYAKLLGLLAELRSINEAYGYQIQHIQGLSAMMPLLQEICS

## NC(=O)c1cc(Cn2cc(-c3c(-c4ccc(Cl)cc4)nc4cc(F)ccn34)nn2)ccc1Cl [Example 93, 2-Chloro-5-((4-(2-(4-chlorophenyl)-7-fluoroimidazo[1,2-a]pyridin-3-yl)-1H-1,2,3-triazol-1-yl)methyl)benzamide]
In vivo; ip
  half-life: 3.62 h
In vivo; oral
  half-life: 2.83 h
[1]
  CYP2B6 mRNA in differentiated HepaRG cells: upregulates; also recorded: up-regulation
[2]
  EC50: 71 nM
[3]
  stability in human plasma: stable
CAR variant 3
  CAR3 % of CITCO (1 μM) activity at 1 μM: 83%
COS-1 cells
  IC50: > 30000 nM
[4]
  fraction unbound at 1 μM: 0.01
Estradion β receptor
  activation of estradion β receptor: do not activate
Live X receptor α
  activation of live X receptor α: do not activate
Live X receptor β
  activation of live X receptor β: do not activate
Human CYP2D6
  IC50: > 10000 nM
[5]
  activation of thyroid hormone receptors: do not activate
[6]
  clinical signs of toxicity, Repeated Dose 7-day Oral Toxicity Study in Rats: No significant clinical signs of toxicity
Human CYP1A2
  IC50: > 10000 nM
Human CAR LBD
  EC50: 380 nM
[7]
  viability/cytotoxicity in differentiated HepaRG cells: no effect on viability/cytotoxicity
